Common to all, as to type: functional
Assay [1] can be described thus: Effect on glucose-dependent insulin secretion activity per ug of total protein in rat RIN5F cells at 0.1 uM after 30 mins.
A short description of assay [2]: Effect on glucose-dependent insulin secretion activity per ug of total protein in rat RIN5F cells at 1 uM after 30 mins.
Assay [3] in a line: Effect on glucose-dependent insulin secretion activity per ug of total protein in rat RIN5F cells at 10 uM after 30 mins.

As for `Cc1cnc2c(c1)c1cc(C(=O)O)nc(C3CCCCC3)c1n2C`, the results for the Activity in assay [1], in assay [2] and in assay [3] were 18.2 pg/µg/h, 23.1 pg/µg/h and 28.2 pg/µg/h, respectively.
For `COC(=O)C1Cc2c([nH]c3ncccc23)CN1` (stereo not drawn) the same measures were 10.1 pg/µg/h, 10.6 pg/µg/h and 10.9 pg/µg/h.
For `Cn1c2ncccc2c2cc(C(=O)O)nc(Cc3ccccc3)c21` the same measures were 18.5 pg/µg/h, 19.4 pg/µg/h and 22.2 pg/µg/h.
In the case of `COC(=O)C1Cc2c(n(C)c3ncc(C)cc23)C(C2CCCCC2)N1` (stereo not drawn), the Activity in assay [1] came out at 12.4 pg/µg/h; in assay [2] it was 13.4 pg/µg/h; in assay [3] it was 14.2 pg/µg/h.
The corresponding values for `COC(=O)C1Cc2c([nH]c3ncc(C)cc23)C(C)N1` (stereo not drawn) are 10.9 pg/µg/h, 11.5 pg/µg/h and 11.9 pg/µg/h.
The corresponding values for `O=C(O)c1cc2c([nH]c3ncccc32)c(-c2ccccc2)n1` are 16.2 pg/µg/h, 18.1 pg/µg/h and 20.6 pg/µg/h.
For `COC(=O)C1Cc2c([nH]c3ncccc23)C(c2ccccc2)N1` (stereo not drawn), the Activity amounted to 10.8 pg/µg/h in assay [1], 11.2 pg/µg/h in assay [2] and 11.5 pg/µg/h in assay [3].
In the case of `COC(=O)C1Cc2c([nH]c3ncc(C)cc23)C(C2CCCCC2)N1` (stereo not drawn), the figures for the Activity in assay [1], in assay [2] and in assay [3] were 10.9 pg/µg/h, 11.5 pg/µg/h and 11.9 pg/µg/h, respectively.
For `Cc1nc(C(=O)O)cc2c1[nH]c1ncccc12` the same measures were 15.4 pg/µg/h, 17.4 pg/µg/h and 20.1 pg/µg/h.
As to `COC(=O)c1cc2c([nH]c3ncc(C)cc32)c(Cc2ccccc2)n1`, the Activity in assay [1] was 14.1 pg/µg/h; in assay [2], 14.8 pg/µg/h; in assay [3], 15.1 pg/µg/h.
The corresponding values for `COC(=O)C1Cc2c(n(C)c3ncccc23)C(Cc2ccccc2)N1` (stereo not drawn) are 11.5 pg/µg/h, 12.2 pg/µg/h and 12.9 pg/µg/h.
For `COC(=O)c1cc2c([nH]c3ncccc32)c(-c2ccccc2)n1` the same measures were 12 pg/µg/h, 12.6 pg/µg/h and 12.9 pg/µg/h.
The corresponding values for `COC(=O)c1cc2c3cc(C)cnc3n(C)c2cn1` are 14.3 pg/µg/h, 14.9 pg/µg/h and 15.6 pg/µg/h.
Regarding `Cn1c2ncccc2c2cc(C(=O)O)nc(C3CCCCC3)c21`, the figures for the Activity in assay [1], in assay [2] and in assay [3] were 16.1 pg/µg/h, 18.4 pg/µg/h and 21.4 pg/µg/h, respectively.
The corresponding values for `COC(=O)C1Cc2c([nH]c3ncccc23)C(C2CCCCC2)N1` (stereo not drawn) are 10.2 pg/µg/h, 10.7 pg/µg/h and 11 pg/µg/h.
For `COC(=O)c1cc2c([nH]c3ncc(C)cc32)c(C2CCCCC2)n1` the same measures were 13.5 pg/µg/h, 14 pg/µg/h and 14.3 pg/µg/h.
Take `COC(=O)c1cc2c3cc(C)cnc3n(C)c2c(C)n1`: the Activity was 14.8 pg/µg/h in assay [1], 15.2 pg/µg/h in assay [2] and 15.9 pg/µg/h in assay [3].
As for `COC(=O)c1cc2c([nH]c3ncc(C)cc32)c(-c2ccccc2)n1`, the Activity in assay [1] amounted to 13.9 pg/µg/h; in assay [2], 14.2 pg/µg/h; in assay [3], 14.9 pg/µg/h.
The corresponding values for `COC(=O)c1cc2c3cccnc3n(C)c2c(-c2ccccc2)n1` are 13.9 pg/µg/h, 14.1 pg/µg/h and 14.8 pg/µg/h.
The corresponding values for `Cc1cnc2c(c1)c1cc(C(=O)O)ncc1n2C` are 17.3 pg/µg/h, 20 pg/µg/h and 24.2 pg/µg/h.
The corresponding values for `COC(=O)c1cc2c3cccnc3n(C)c2c(Cc2ccccc2)n1` are 14 pg/µg/h, 14.6 pg/µg/h and 15 pg/µg/h.
Turning to `COC(=O)C1Cc2c([nH]c3ncc(C)cc23)C(c2ccccc2)N1` (stereo not drawn), the figures for the Activity in assay [1], in assay [2] and in assay [3] were 11 pg/µg/h, 11.9 pg/µg/h and 12.2 pg/µg/h, respectively.
The corresponding values for `COC(=O)C1Cc2c([nH]c3ncc(C)cc23)CN1` (stereo not drawn) are 10.8 pg/µg/h, 11.2 pg/µg/h and 11.5 pg/µg/h.
The corresponding values for `COC(=O)C1Cc2c(n(C)c3ncccc23)CN1` (stereo not drawn) are 10.8 pg/µg/h, 11.2 pg/µg/h and 11.5 pg/µg/h.
For `Cc1cnc2c(c1)c1cc(C(=O)O)nc(-c3ccccc3)c1n2C` the same measures were 19.1 pg/µg/h, 26 pg/µg/h and 32.2 pg/µg/h.
Turning to `COC(=O)c1cc2c([nH]c3ncccc32)c(C2CCCCC2)n1`, the Activity in assay [1] worked out at 11.9 pg/µg/h; in assay [2], 12.1 pg/µg/h; in assay [3] it was 12.5 pg/µg/h.
Consider `COC(=O)c1cc2c3cc(C)cnc3n(C)c2c(C2CCCCC2)n1`, for which the Activity in assay [1] stood at 14.8 pg/µg/h; in assay [2] it was 15.2 pg/µg/h; in assay [3] it was 15.9 pg/µg/h.
For `COC(=O)c1cc2c3cccnc3n(C)c2c(C2CCCCC2)n1` the same measures were 13.4 pg/µg/h, 13.9 pg/µg/h and 14.2 pg/µg/h.
The corresponding values for `COC(=O)c1cc2c([nH]c3ncc(C)cc32)c(C)n1` are 13.5 pg/µg/h, 13.9 pg/µg/h and 14.2 pg/µg/h.
For `Cc1nc(C(=O)O)cc2c3cccnc3n(C)c12` the same measures were 16.2 pg/µg/h, 18.1 pg/µg/h and 21.5 pg/µg/h.
For `Cc1cnc2c(c1)c1cc(C(=O)O)nc(C)c1n2C`, the Activity in assay [1] stood at 18.1 pg/µg/h; in assay [2] it was 22 pg/µg/h; in assay [3], 28.3 pg/µg/h.
For `COC(=O)C1Cc2c(n(C)c3ncc(C)cc23)C(C)N1` (stereo not drawn) the same measures were 12.3 pg/µg/h, 13.2 pg/µg/h and 14 pg/µg/h.
For `COC(=O)c1cc2c(cn1)[nH]c1ncccc12` the same measures were 11 pg/µg/h, 11.9 pg/µg/h and 12 pg/µg/h.
For `Cn1c2cnc(C(=O)O)cc2c2cccnc21` the same measures were 15.2 pg/µg/h, 17.4 pg/µg/h and 19.1 pg/µg/h.
As to `COC(=O)C1Cc2c(n(C)c3ncccc23)C(C)N1` (stereo not drawn), the Activity in assay [1] came to 10.9 pg/µg/h; in assay [2] it was 11.5 pg/µg/h; in assay [3] it was 11.9 pg/µg/h.
For `Cc1cnc2[nH]c3c(-c4ccccc4)nc(C(=O)O)cc3c2c1` the same measures were 17.1 pg/µg/h, 19.3 pg/µg/h and 21.4 pg/µg/h.
Regarding `COC(=O)C1Cc2c(n(C)c3ncc(C)cc23)CN1` (stereo not drawn), the figures for the Activity in assay [1], in assay [2] and in assay [3] were 12.2 pg/µg/h, 13.1 pg/µg/h and 14.1 pg/µg/h, respectively.
The corresponding values for `O=C(O)c1cc2c([nH]c3ncccc32)c(Cc2ccccc2)n1` are 17.1 pg/µg/h, 18.3 pg/µg/h and 21.5 pg/µg/h.
With `COC(=O)C1Cc2c([nH]c3ncccc23)C(Cc2ccccc2)N1` (stereo not drawn), the Activity turned out to be 10.9 pg/µg/h in assay [1], 11.5 pg/µg/h in assay [2] and 11.9 pg/µg/h in assay [3].
The corresponding values for `Cc1cnc2[nH]c3c(Cc4ccccc4)nc(C(=O)O)cc3c2c1` are 18 pg/µg/h, 19.2 pg/µg/h and 22.1 pg/µg/h.
For `COC(=O)C1Cc2c(n(C)c3ncc(C)cc23)C(c2ccccc2)N1` (stereo not drawn) the same measures were 13.5 pg/µg/h, 14.9 pg/µg/h and 15.2 pg/µg/h.
For `COC(=O)c1cc2c3cccnc3n(C)c2cn1` the same measures were 13 pg/µg/h, 13.1 pg/µg/h and 13.9 pg/µg/h.
Take `O=C(O)c1cc2c(cn1)[nH]c1ncccc12`: the values for the Activity in assay [1], in assay [2] and in assay [3] were 14.1 pg/µg/h, 16.2 pg/µg/h and 18 pg/µg/h, respectively.
For `COC(=O)C1Cc2c(n(C)c3ncccc23)C(c2ccccc2)N1` (stereo not drawn) the same measures were 11 pg/µg/h, 11.9 pg/µg/h and 12.2 pg/µg/h.
The corresponding values for `Cc1cnc2[nH]c3cnc(C(=O)O)cc3c2c1` are 15.1 pg/µg/h, 17.3 pg/µg/h and 19.2 pg/µg/h.
For `Cc1cnc2[nH]c3c(C4CCCCC4)nc(C(=O)O)cc3c2c1` the same measures were 16.3 pg/µg/h, 18.4 pg/µg/h and 21.2 pg/µg/h.
